Measured values as given in patent US4748185A, “4-hydroxycoumarin derivatives” (priority 1985, dated 1988).
Where two headings read alike, the source gives them in different places.

Assays:
prothrombin time = test: Anticoagulant activity by measurement of the prothrombin time (3-day ED50, intraperitoneal, modified one-step method of Quick); assay type: in vivo, Wistar-strain male rats; details: Rattus norvegicus, S100, ip, 72 h, read-out: 3-day ED50
Description: Anticoagulant activity of the compounds of Examples 1 to 11 was determined by measurement of the prothrombin time, which is a measure of blood-clotting properties and is a reliable indicator of efficacy for an anticoagulant rodenticide. The procedure for measurement of prothrombin time is based on Quick et al, Am. J. Med. Sci., 190, 501 to 511, 1935.
Prothrombin times were determined according to the following specific procedures. Test compounds were dissolved in a mixture of polyethylene glycol 200 (i.e. polyethylene glycol of average molar mass 200) and triethanolamine (9:1 w/w) and serially diluted with the same solvent system to give concentrations of; 5.0, 2.5, 1.0, 0.9, 0.8, 0.7, 0.6, 0.5, 0.45, 0.40, 0.35, 0.30, 0.25, 0.2 and 0.1 milligrammes per milliliter (mgml^-1).
As these concentrations represent a known number of milligrammes per milliliter administration of any solution to the test animal at the rate of 1 milliliter per 1 kilogramme of bodyweight (eg. a 250 g rat is administered 0.25 ml) delivers a dose (in mg kg^-1) numerically equivalent to the concentration of that solution. In this instance the terms concentration and dose are synonymous.
Thus, appropriate doses were a range of at least three consecutive doses from the above series of concentrations which it was estimated would induce a range of prothrombin time elevations between 0 to 100% such that a dose-response curve could be constructed for that analogue.
The doses were injected into test animals (200 to 250 g Wistar-strain male rats) by the interperitoneal route. Three days after injection, blood was withdrawn by cardiac puncture whilst the animals were held under "Halothane" anaesthesia.
Three rats were used in each test of a particular compound and three prothrombin time determinations were carried out on each blood sample. Prothrombin times were determined using the modified one-step method of Quick. The percentage extension time of each prothrombin time was determined by assigning 0% extension time to an arbitrary prothrombin resting time of 12 seconds, and 100% extension time to a prothrombin time elevated to an arbitrary 212 seconds. Results were plotted on log-probability graph paper, the best-line fitted, and the prothrombin time ED50 read from the graph.

test animal (rat) = test: Acute oral LD50; assay type: in vivo; details: polyethylene glycol 200/triethanolamine 9:1 w/w
Description: For some compounds, LD50 data has also been generated, as follows.
Compounds were dissolved in a mixture of polyethylene glycol 200 and triethanolamine (9:1 w/w) and serially diluted with the same solvent system to given concentrations of: 10.0, 4.64, 2.15, 1.00, 0.464, 0.215, 0.10, milligrammes per milliliter (mgml^-1).
As these concentrations represent a known number of milligrammes per milliliter, administration of any solution to the test animal at the rate of 1 milliliter per 1 kilogramme of bodyweight delivers a dose (in mgkg^-1) numerically equivalent to the concentration of that solution.
Thus appropriate doses were a range of four consecutive oral doses from the series of concentration sufficient to cause low group mortality at the lowest dose, and high group mortality at the highest dose. Acute oral LD50 's were then determined by reference to the tables in Horns' paper "Simplified LD50 (or ED50) Calculations", Biometrics, 12, 311-322.

[1] = prothrombin time ED50, single intraperitoneal injection, male Wistar rats, blood taken three days after injection, 0% = 12 s, 100% = 212 s

| SMILES | ED50 (prothrombin time) [mg/kg] | LD50 (test animal (rat)) [mg/kg] | ED50 (prothrombin time; [1]) [mg/kg] |
| --- | --- | --- | --- |
| O=c1oc2ccccc2c(O)c1C1CC(c2ccc(-c3ccccc3)cc2)Cc2ccccc21 (stereo not drawn) [Difenacoum, reference compound] | 0.56 | 1.80 | – |
| O=c1oc2ccccc2c(O)c1C1CC(c2ccc(-c3ccc(OCc4ccc(C(F)(F)F)cc4)cc3)cc2)Cc2ccccc21 (stereo not drawn) [Example 1, 3-{3-[4'-(4-trifluoromethylbenzyloxy)biphenyl-4-yl]-1,2,3,4-tetrahydro-1-naphthyl}-4-hydroxycoumarin] | – | 0.32 to 0.4 | 0.4 |
| N#Cc1ccc(COc2ccc(-c3ccc(C4Cc5ccccc5C(c5c(O)c6ccccc6oc5=O)C4)cc3)cc2)cc1 (stereo not drawn) [Example 2, 3-{3-[4'-(4-cyanobenzyloxy)biphenyl-4-yl]-1,2,3,4-tetrahydro-1-naphthyl}-4-hydroxycoumarin] | – | – | 1.6 |
| O=c1oc2ccccc2c(O)c1C1CC(c2ccc(-c3ccc(OCc4ccc(Br)cc4)cc3)cc2)Cc2ccccc21 (stereo not drawn) [Example 3, 3-{3-[4'-(4-bromobenzyloxy)biphenyl-4-yl]-1,2,3,4-tetrahydro-1-naphthyl}-4-hydroxycoumarin] | – | 0.4 to 1.0 | 0.74 |
| O=c1oc2ccccc2c(O)c1C1CC(c2ccc(-c3ccc(-c4ccccc4)cc3)cc2)Cc2ccccc21 (stereo not drawn) [Example 4, 3-[3-(4'-terphenyl-4-yl)-1,2,3,4-tetrahydro-1-naphthyl]-4-hydroxycoumarin] | – | 1.0 | 0.55 |
| O=c1oc2ccccc2c(O)c1C1CC(c2ccc(OCc3ccc(-c4ccccc4)cc3)cc2)Cc2ccccc21 (stereo not drawn) [Example 5, 3-{3-[4-(4-phenylbenzyloxy)phenyl]-1,2,3,4-tetrahydro-1-naphthyl}-4-hydroxycoumarin] | – | 0.4 to 1.0 | 0.4 |
| O=c1oc2ccccc2c(O)c1C1CC(c2ccc(OCc3ccc(-c4ccc(Br)cc4)cc3)cc2)Cc2ccccc21 (stereo not drawn) [Example 6, 3-{3-[4-(4'-bromobiphenyl-4-ylmethoxy)phenyl]-1,2,3,4-tetrahydro-1-naphthyl}-4-hydroxycoumarin] | – | – | 0.72 |
| O=c1oc2ccccc2c(O)c1C1CC(c2ccc(Oc3ccc(-c4ccc(Cl)cc4)cc3)cc2)Cc2ccccc21 (stereo not drawn) [Example 7, 3-{3-[4-(4'-chlorobiphenyl-4-yloxy)phenyl]-1,2,3,4-tetrahydro-1-naphthyl}-4-hydroxycoumarin] | – | – | 0.36 |
| O=c1oc2ccccc2c(O)c1C1CC(c2ccc(Cc3ccc(-c4ccc(Br)cc4)cc3)cc2)Cc2ccccc21 (stereo not drawn) [Example 8, 3-{3-[4-(4'-bromobiphenyl-4-ylmethyl)phenyl]-1,2,3,4-tetrahydro-1-naphthyl}-4-hydroxycoumarin] | – | – | 0.37 |
| O=c1oc2ccccc2c(O)c1C1CC(c2ccc(OCc3ccc(-c4ccc(-c5ccccc5)cc4)cc3)cc2)Cc2ccccc21 (stereo not drawn) [Example 9, 3-{3-[4-(4-biphenyl-4-ylbenzyloxy)phenyl]-1,2,3,4-tetrahydro-1-naphthyl}-4-hydroxycoumarin] | – | – | 0.49 |
| O=c1oc2ccccc2c(O)c1C1CC(c2ccc(Cc3ccc(-c4ccccc4)cc3)cc2)Cc2ccccc21 (stereo not drawn) [Example 10, 3-{3-[4-(biphenyl-4-ylmethyl)phenyl]-1,2,3,4-tetrahydro-1-naphthyl}-4-hydroxycoumarin] | – | – | 0.52 |
| O=c1oc2ccccc2c(O)c1C1CC(c2ccc(Oc3ccc(-c4ccccc4)cc3)cc2)Cc2ccccc21 (stereo not drawn) [Example 11, 3-{3-[4-(biphenyl-4-yloxy)phenyl]-1,2,3,4-tetrahydro-1-naphthyl}-4-hydroxycoumarin] | – | – | 0.55 |
| CC(=O)CC(c1ccccc1)c1c(O)c2ccccc2oc1=O (stereo not drawn) [Warfarin, 3-(α-acetonylbenzyl)-4-hydroxycoumarin, reference compound] | – | – | 5.2 |
